Test results reported in patent US20260201006A1, “COACERVATE FORMULATIONS OF CXCR-ACTIVATING PEPTIDES FOR CONTROLLED RELEASE IN OPHTHALMIC AND TOPICAL TREATMENTS” (University of Pittsburgh - Of the Commonwealth System of …, priority 2022, published 2026).
Ends that are not written are not given here.

Tests used:
[1] = tested on: TNFα mRNA in human conjunctival epithelial (HCjE) cells; assay: TNFα-mediated inflammation in HCjE cells (qRT-PCR); format: cell-based
Method: Primary human conjunctival epithelial (HCjE) cells were seeded at 40,000 cells per well in a 96 well flat bottom plate. After overnight adhesion in Keratinocyte-Serum Free Media (cK-SFM), the cells were washed and exposed to starvation media (SFM) for a further 24 hours. At this time the cells were exposed to TNFα (5 ng/ml) in the presence or absence of CXCL10p peptide (200 ng/ml). After 4 hours, the cells were harvested and tested for TNFα mRNA levels with GAPDH mRNA as the control for equalization.

MUC5AC transcripts = assay: Goblet cell study: qRT-PCR for MUC5AC transcripts in HCjE cells; format: cell-based, human; settings: 200 ng/ml or 2000 ng/ml, relative to vehicle only
Method: (§1) HCjE cells were maintained in complete keratinocyte serum free medium (KSFM; Invitrogen, Carlsbad, CA) in petri dishes coated with type 1 collagen. When the HCjE cells reached 50% confluence, the culture medium was replaced with growth medium (1:1 DMEM/F12:complete KSFM). When cells reached 100% confluence, the cells were fed with stratification medium (DMEM/F12+10% FBS) with or without the CXCL10p peptide (either 200 ng/ml or 2000 ng/ml). Control cells were fed with the medium supplemented with an equivalent volume of the vehicle (PBS) in which the peptide was dissolved. This medium with or without peptide was replaced every other day for 14 days, after which the cells were either stained with periodic acid-Schiff's (PAS) reagent following the standard protocol, or subjected to total RNA isolation, and qRT-PCR for MUC5AC transcripts with TATA-box binding protein (TBP) as the endogenous control.
Control and CXCR3 activating peptide-treated HCjE cells are also examined for expression of MUC5AC transcripts by qRT-PCR.

HCjE cells = assay: Goblet cell study: PAS staining of stratified HCjE cells; format: cell-based, human; settings: 200 ng/ml or 2000 ng/ml, compared to vehicle-treated HCjE cells
Method: as §1
To further examine the effects of the CXCR3 activating peptide on goblet cell functioning in vitro, stratified HCjE cells are treated with 200 ng/ml CXCR3 activating peptide, 2000 ng/ml CXCR3 activating peptide, or vehicle. Cells are then stained with periodic acid-Schiff's (PAS) reagent.

[2] = tested on: environmental dry eye model; assay: Schirmer tear test (STT) in rabbit environmental dry eye model; format: in vivo, New Zealand white rabbits; settings: rabbits, 21 days treatment
Method: The 22-mer CXCL10p peptide (OH-[…]-NH2; SEQ ID NO: 5) was manufactured by PolyPeptide Inc. (San Diego, CA, USA) and purified to >95% purity as a lyophilized powder. The peptide was delivered in three different formulations. For subconjunctival injection, 3 μg of the peptide was dissolved in 100 μl of sterile PBS for weekly injections. For eye drops, 10 μg of the peptide was dissolved in 50 μl of sterile PBS for twice daily drops (BID). For the slow-release formulation, 10 μg of the peptide was dissolved in 50 μl of coacervate for BID inoculation. The control was 50 μl of sterile PBS applied BID. The coacervate is a heparin and PEAD (1:3.6) mixture with each component at a 10 mg/mL concentration in water. The CXCL10p peptide was added at a 1:10 dilution in PBS to the final concentration.
The environmental dry eye model was used to test the CXCL10p peptide. Female New Zealand white rabbits (8 per group) were used at 125-175 days old (weighing 3-5 kg) at the time of induction. For induction of dry eye, all animals were dosed with atropine sulfate (1%) in both eyes (OU) twice daily (BID) for 2-3 weeks prior to test article administration to induce KCS. In addition, humidity in the animals' housing room was maintained at ~20% throughout the study to promote eye dryness. Non-responder animals were removed from the study at the end of the induction phase. […]

OH-PESKAIKNLLKAVHKEMSKRSP-NH2 [CXCL10p peptide]
reduction of TNFα mRNA levels ([1]; HCjE cells, TNFα 5 ng/ml, peptide 200 ng/ml, 4 hours): approximately one quarter | TNFα mRNA levels ([1]; HCjE challenged with TNFα, concurrent exposure to peptide): dampened the TNFα mRNA levels in a reproducible and statistically significant manner | levels of MUC5AC transcripts (MUC5AC transcripts): increased levels of MUC5AC transcripts | frequency of intense magenta stained cell clusters (goblet cell clusters) (HCjE cells): increase in the frequency | staining with PAS reagent (proteoglycan content) (HCjE cells): more intense staining with PAS reagent | amount of aqueous tear (STT) [2]: uncorrected
